Reference: patent US20220040129A1, “TREATMENT OF HYPERAMMONEMIA IN PATIENTS WITH RENAL INSUFFICIENCY” (RECORDATI S.p.A., priority 2019, published 2022)

Assays:
plasma NH3 = assay: Plasma NH3 reduction in Propensity Matching Score (PMS) Population; assay type: in vivo, human
Description: Episodes treated with extracorporeal detoxification (HD, HF, PD) during the timeframe of the analysis were excluded. There were 12 patients in each group, and NH3 levels were measured in 12- and 24-hour periods over 120 hours. […] The two populations analyzed included: 1) Population with baseline plasma NH3 levels over 100 micromol/L in non-neonate or 150 micromol/L in neonate; 2) Propensity Matching Score (PMS) Population. […] These rates of decrease were confirmed to be statistically significant.

CYP2C9 = CYP2C9 (Homo sapiens, UniProt P11712); assay: In vitro CYP inhibition; assay type: in vitro ADME
CYP2C19 = CYP2C19 (Homo sapiens, UniProt P33261); assay: In vitro CYP inhibition; assay type: in vitro ADME
human OAT1 = target: T1, human OAT1 (Homo sapiens, UniProt Q4U2R8); assay: In vitro transporter inhibition; assay type: in vitro ADME
T1 sequence (Q4U2R8 1-563): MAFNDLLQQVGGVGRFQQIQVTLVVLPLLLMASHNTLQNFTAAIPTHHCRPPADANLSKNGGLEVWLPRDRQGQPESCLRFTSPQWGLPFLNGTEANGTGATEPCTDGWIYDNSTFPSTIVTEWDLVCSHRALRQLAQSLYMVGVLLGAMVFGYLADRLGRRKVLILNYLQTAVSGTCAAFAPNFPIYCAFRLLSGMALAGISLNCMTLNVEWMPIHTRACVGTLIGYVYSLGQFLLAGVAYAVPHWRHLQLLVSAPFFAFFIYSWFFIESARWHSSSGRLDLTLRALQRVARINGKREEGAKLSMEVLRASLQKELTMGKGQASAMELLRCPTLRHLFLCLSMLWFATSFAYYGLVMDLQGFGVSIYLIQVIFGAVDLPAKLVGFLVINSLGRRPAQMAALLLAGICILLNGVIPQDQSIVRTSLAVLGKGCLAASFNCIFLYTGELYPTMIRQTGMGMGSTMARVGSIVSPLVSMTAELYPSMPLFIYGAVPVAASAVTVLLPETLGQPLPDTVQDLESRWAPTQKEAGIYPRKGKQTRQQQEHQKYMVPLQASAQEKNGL
Description: (§1) In vitro drug interaction studies were performed with human transporters. […] Potential interactions with inhibitors of the OAT1 transporter were considered clinically irrelevant.

human OATP1B1 = target: T2, human OATP1B1 (Homo sapiens, UniProt Q9Y6L6); assay: In vitro transporter inhibition; assay type: in vitro ADME
T2 sequence (Q9Y6L6 1-691): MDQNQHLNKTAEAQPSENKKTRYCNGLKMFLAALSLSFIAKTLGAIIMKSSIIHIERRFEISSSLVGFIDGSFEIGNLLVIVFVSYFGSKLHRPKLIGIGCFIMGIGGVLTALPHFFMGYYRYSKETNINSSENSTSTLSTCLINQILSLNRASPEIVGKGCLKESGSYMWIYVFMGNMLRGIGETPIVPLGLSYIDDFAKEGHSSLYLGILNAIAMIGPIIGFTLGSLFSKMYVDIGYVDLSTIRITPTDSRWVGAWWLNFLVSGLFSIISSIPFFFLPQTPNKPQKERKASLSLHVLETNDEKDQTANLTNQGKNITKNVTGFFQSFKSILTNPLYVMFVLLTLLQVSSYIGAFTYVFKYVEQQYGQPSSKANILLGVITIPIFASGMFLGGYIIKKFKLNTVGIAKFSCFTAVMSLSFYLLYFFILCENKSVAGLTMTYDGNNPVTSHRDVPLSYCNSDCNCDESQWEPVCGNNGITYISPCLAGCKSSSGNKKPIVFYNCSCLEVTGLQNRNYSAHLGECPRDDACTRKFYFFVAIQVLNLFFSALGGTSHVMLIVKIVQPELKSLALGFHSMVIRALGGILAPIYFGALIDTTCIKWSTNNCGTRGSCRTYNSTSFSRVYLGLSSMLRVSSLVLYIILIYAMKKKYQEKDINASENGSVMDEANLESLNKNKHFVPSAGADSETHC
Description: as §1

human OCT1 = target: T3, human OCT1 (Homo sapiens, UniProt O15245); assay: In vitro transporter inhibition; assay type: in vitro ADME
T3 sequence (O15245 1-554): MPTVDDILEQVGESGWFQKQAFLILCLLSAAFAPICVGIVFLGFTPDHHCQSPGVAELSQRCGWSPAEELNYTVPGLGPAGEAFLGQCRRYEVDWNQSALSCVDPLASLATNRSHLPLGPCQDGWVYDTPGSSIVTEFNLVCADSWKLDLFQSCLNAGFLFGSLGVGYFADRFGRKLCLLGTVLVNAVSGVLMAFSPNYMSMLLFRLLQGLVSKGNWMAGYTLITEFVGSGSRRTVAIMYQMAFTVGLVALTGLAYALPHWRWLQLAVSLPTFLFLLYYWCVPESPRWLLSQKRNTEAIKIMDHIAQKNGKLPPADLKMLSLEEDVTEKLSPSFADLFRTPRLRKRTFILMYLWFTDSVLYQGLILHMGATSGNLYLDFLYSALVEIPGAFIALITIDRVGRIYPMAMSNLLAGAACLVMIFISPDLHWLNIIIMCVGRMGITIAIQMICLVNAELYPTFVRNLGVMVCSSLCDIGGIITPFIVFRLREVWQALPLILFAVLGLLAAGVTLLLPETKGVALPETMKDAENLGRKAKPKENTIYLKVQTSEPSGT
Description: as §1

[1] = PK study comparing oral to IV CARBAGLU in 36 healthy volunteers; assay type: in vivo, human

CYP2C19, sequence (P33261 whole entry): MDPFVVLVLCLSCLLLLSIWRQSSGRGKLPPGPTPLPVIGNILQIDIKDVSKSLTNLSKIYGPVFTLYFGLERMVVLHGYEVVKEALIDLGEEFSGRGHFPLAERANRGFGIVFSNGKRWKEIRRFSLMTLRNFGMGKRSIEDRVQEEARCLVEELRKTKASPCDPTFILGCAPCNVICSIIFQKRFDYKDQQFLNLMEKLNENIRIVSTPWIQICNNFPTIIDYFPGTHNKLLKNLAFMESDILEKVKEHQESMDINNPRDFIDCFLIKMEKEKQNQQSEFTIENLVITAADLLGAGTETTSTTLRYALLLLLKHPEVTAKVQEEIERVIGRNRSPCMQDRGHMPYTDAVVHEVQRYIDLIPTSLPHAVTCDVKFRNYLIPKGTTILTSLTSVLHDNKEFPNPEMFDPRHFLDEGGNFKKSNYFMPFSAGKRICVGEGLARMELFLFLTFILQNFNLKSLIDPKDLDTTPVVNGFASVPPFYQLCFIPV
CYP2C9, sequence (P11712 whole entry): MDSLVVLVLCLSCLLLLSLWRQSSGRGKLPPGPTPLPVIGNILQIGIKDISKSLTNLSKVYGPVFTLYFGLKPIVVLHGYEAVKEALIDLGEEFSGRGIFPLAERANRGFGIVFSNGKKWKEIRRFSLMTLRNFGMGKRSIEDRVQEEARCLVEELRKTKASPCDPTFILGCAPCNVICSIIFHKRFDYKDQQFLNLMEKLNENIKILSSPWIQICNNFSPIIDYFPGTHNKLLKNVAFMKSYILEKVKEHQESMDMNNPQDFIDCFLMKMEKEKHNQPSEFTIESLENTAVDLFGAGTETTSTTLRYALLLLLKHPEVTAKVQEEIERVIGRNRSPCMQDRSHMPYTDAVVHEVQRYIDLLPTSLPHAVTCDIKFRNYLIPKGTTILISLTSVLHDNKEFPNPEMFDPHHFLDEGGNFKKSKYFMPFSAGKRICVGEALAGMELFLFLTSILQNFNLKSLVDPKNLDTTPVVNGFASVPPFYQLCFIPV

NC(=O)N[C@@H](CCC(=O)O)C(=O)O [carglumic acid, N-carbamoyl-L-glutamic acid]
Reduction of mean plasma NH3 levels from baseline compared with NH3 Scav alone (plasma NH3; 12 patients per group, over 120 hours): consistent and meaningful reduction | Median reduction of plasma NH3 (plasma NH3; 24 hours post dose): 61% | Inhibition of CYP2C9 (CYP2C9): not an inhibitor | Inhibition of CYP2C19 (CYP2C19): not an inhibitor | Inhibition of human OAT1 uptake transporter (human OAT1): not an inhibitor | Inhibition of human OATP1B1 uptake transporter (human OATP1B1): not an inhibitor | Inhibition of human OCT1 uptake transporter (human OCT1): not an inhibitor | Mean fraction of the dose excreted in the urine ([1]; after IV administration): 90% | Mean fraction of the dose excreted in the urine ([1]; after oral administration): 7.5% | bioavailability ([1]; human, in vivo, oral vs IV, 36 healthy volunteers, read-out: Mean absolute bioavailability): 9.87%
